Test results: patent publication US6268478A, “Intracellular vitamin D binding protein” (Cedars-Sinai Medical Center, priority 1997, dated 2001)

Target: IDBP (Saguinus oedipus, UniProt Q9N1U2)
Assay: Competitive displacement of [3H]25-OHD3 from IDBP in unfractionated 100,000×g supernatant extracts of B95-8 cells (competitive protein binding assay, dextran-coated charcoal)
Set-up: post-nuclear 100,000xg supernatant of B95-8 marmoset lymphoblasts and partly purified column fractions; species or system Callithrix jacchus (common marmoset)
Details: for competition of non-vitamin D steroids and bioactive lipids with 25-OHD3 for binding: crude post-nuclear / 100,000×g supernatant extracts of B95-8 cells; for RBI (Relative Binding Index): relative ability of maximally effective concentration to displace [3H]25-OHD3, 25-OHD3 assigned 100, unfractionated 100,000×g supernatant of B95-8 cells; for ability to competitively displace [3H]25-OHD3 binding (FIG. 1A): 100 nM competitor, 2 nM [3H]25-OHD3; for binding / displacement of [3H]25-OHD3 by vitamin D2 metabolites and synthetic analogues (FIG. 2B): unfractionated B95-8 extracts, 4 nM [3H]25-OHD3
Description: Culture and Extraction of B95-8 Cells. The B-lymphoblastoid cell line B95-8 was obtained from the American Type Culture Collection (ATCC, Manassas, Va.). This cell line was established by EBV transformation of blood leukocytes from the vitamin D-resistant new world primate, Callithrix jacchus (common marmoset). The cell line was maintained in RPMI-1640 medium (Irvine Scientific, Irvine, Calif.) routinely supplemented with 10% fetal calf serum (FCS; Gemini BioProducts, Calabasas, Calif.), 100 units/ml penicillin, 100 μg/ml streptomycin, 2 mM L-glutamine (both from Gibco-BRL, Grand Island, N.Y.) in an atmosphere of 95% air-5% CO2.
Confluent cultures were harvested by agitation to dislodge clumps of lymphoblasts that were weakly adherent to the plastic flask. Harvested cells were pelleted and washed twice in ice cold phosphate-buffered saline (PBS; 20 mM Na2 HPO4 and 150 mM NaCl, pH 7.2). The pelleted cells were then resuspended in ETD buffer (1 mM EDTA, 10 mM Tris-HCl, 5 mM dithiothreitol, pH 7.4) containing 1 mM phenylmethylsulfonylflouride and homogenized by Polytron on ice in five 15-second bursts. Nuclei with associated nuclear steroid receptor proteins, were pelleted at 4,000×g for 30 minutes at 4° C. The post-nuclear supernatant of this spin was then subjected to high-speed centrifugation at 100,000×g for 1 hour at 4° C. The resulting "100,000×g supernatant" was either aliquoted and stored at […] for further study, used in competitive ligand binding analyses, or subjected to further purification as described below in Example II.
Ligand Binding Analyses. The ability of the unfractionated 100,000×g supernatant extracts of B95-8 cells and individual column […] of increasing concentrations of radioinert compounds (see Table I) was performed by competitive protein binding assay as previously described in Gacad et al. Bone Min. Res. 8:27-35 (1993).
[…] […] […] […] The binding assay conditions were the same as those stated above except that specific binding was determined in ETD-0.3 M Na2 HPO4 buffer (pH 6.8).

IDBP, sequence (Q9N1U2 whole entry): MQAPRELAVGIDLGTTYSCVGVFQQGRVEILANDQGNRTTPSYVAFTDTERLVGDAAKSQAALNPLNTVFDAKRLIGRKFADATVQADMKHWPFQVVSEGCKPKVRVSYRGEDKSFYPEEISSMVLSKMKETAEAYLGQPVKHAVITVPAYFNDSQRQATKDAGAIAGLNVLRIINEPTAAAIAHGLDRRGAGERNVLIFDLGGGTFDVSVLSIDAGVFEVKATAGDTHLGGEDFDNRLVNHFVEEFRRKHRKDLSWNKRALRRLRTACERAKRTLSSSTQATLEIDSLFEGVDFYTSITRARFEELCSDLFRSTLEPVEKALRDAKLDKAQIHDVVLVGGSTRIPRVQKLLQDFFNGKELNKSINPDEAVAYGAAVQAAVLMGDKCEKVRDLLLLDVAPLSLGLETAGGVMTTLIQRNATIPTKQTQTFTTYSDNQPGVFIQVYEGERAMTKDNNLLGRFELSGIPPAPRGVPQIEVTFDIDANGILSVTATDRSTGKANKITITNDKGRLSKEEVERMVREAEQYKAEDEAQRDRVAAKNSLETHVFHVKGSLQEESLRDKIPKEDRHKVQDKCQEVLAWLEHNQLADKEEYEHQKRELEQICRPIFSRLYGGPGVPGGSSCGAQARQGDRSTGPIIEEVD

## C[C@]12CCC(=O)C[C@@H]1CC[C@@H]1[C@@H]2CC[C@]2(C)[C@@H](O)CC[C@@H]12 [5-Dihydroxytestosterone]
  competition of non-vitamin D steroids and bioactive lipids with 25-OHD3 for binding: none of the six steroid precursor molecules, glucocorticoids, mineralocorticoids, or the major intracellular metabolite of testosterone, 5-dihydrotestosterone, were capable ligands
  RBI (Relative Binding Index): 0

## CC1=C(/C=C/C(C)=C/C=C/C(C)=C/C(=O)O)C(C)(C)CCC1 [All-trans Retinoic acid]
  RBI (Relative Binding Index): 0

## C[C@]12CC[C@H](O)CC1=CC[C@@H]1[C@@H]2CC[C@]2(C)C(=O)CC[C@@H]12 [DHEA]
  RBI (Relative Binding Index): 0

## C[C@]12CCC(=O)C=C1CC[C@@H]1[C@@H]2CC[C@]2(C)C(=O)CC[C@@H]12 [Androstendione]
  RBI (Relative Binding Index): 0

## C[C@@H]1C[C@H]2[C@@H]3CCC4=CC(=O)C=C[C@]4(C)[C@@]3(F)[C@@H](O)C[C@]2(C)[C@@]1(O)C(=O)CO [Dexamethasone]
  RBI (Relative Binding Index): 0

## C[C@]12CC[C@H]3[C@@H](CCC4=CC(=O)CC[C@@]43C)[C@@H]1CC[C@@H]2C(=O)CO [Deoxycorticosterone (DOC), Deoxycorticosterone]
  RBI (Relative Binding Index): 0

## C=C1/C(=C\C=C2/CCC[C@]3(C)[C@@H]([C@H](C)CCCC(C)C)CC[C@@H]23)C[C@@H](O)C[C@@H]1O [1-OHD3]
  ability to competitively displace [3H]25-OHD3 binding (FIG. 1A): incapable of displacing [^3 H]25-OHD3
  RBI (Relative Binding Index): 0

## C=C1/C(=C\C=C2/CCC[C@]3(C)[C@@H]([C@H](C)/C=C/[C@@H](O)C4CC4)CC[C@@H]23)C[C@@H](O)C[C@@H]1O [Calcipotriol (MC903), Calcipotriol]
  RBI (Relative Binding Index): 0
  binding / displacement of [3H]25-OHD3 by vitamin D2 metabolites and synthetic analogues (FIG. 2B): none of the C-1-hydroxylated nonhypercalcemic analogues MC903, EB1089 and KH1060 (FIG. 2A) were able to displace [^3 H]25-OHD3 binding

## C=C1/C(=C\C=C2/CCC[C@]3(C)[C@@H]([C@H](C)/C=C/C=C/C(O)(CC)CC)CC[C@@H]23)C[C@@H](O)C[C@@H]1O [EB1089]
  RBI (Relative Binding Index): 0
  binding / displacement of [3H]25-OHD3 by vitamin D2 metabolites and synthetic analogues (FIG. 2B): none of the C-1-hydroxylated nonhypercalcemic analogues MC903, EB1089 and KH1060 (FIG. 2A) were able to displace [^3 H]25-OHD3 binding

## C[C@H](CCCC(C)(C)O)[C@H]1CC[C@H]2[C@@H]3CC=C4C[C@@H](O)CC[C@]4(C)[C@H]3CC[C@]12C [25-Hydroxycholesterol]
  competition of non-vitamin D steroids and bioactive lipids with 25-OHD3 for binding: none of these evaluated compounds were able to compete with 25-OHD3 for binding
  RBI (Relative Binding Index): 0

## C=C1/C(=C\C=C2/CCC[C@]3(C)[C@@H]([C@@H](C)OCCCC(O)(CC)CC)CC[C@@H]23)C[C@@H](O)C[C@@H]1O [KH1060]
  RBI (Relative Binding Index): 0
  binding / displacement of [3H]25-OHD3 by vitamin D2 metabolites and synthetic analogues (FIG. 2B): none of the C-1-hydroxylated nonhypercalcemic analogues MC903, EB1089 and KH1060 (FIG. 2A) were able to displace [^3 H]25-OHD3 binding

## C=C1/C(=C\C=C2/CCC[C@]3(C)[C@@H]([C@H](C)CCC(O)C(C)(C)O)CC[C@@H]23)C[C@@H](O)CC1O (stereo partly drawn) [1,24,25-(OH)3D3]
  ability to competitively displace [3H]25-OHD3 binding (FIG. 1A): significantly decreased effective competitive binding
  RBI (Relative Binding Index): 36
Competitor at 10^-7 M, 0.1 µM
  displacement of 25-OHD3: 20%
Competitor concentrations below 10^-7 M
  displacement of 25-OHD3 at lower concentrations: no apparent displacement at lower concentrations

## C[C@]12CC[C@@H]3c4ccc(O)cc4CC[C@H]3[C@@H]1CC[C@@H]2O [17β-Estradiol]
  competition of non-vitamin D steroids and bioactive lipids with 25-OHD3 for binding: competitively displaces [^3 H]25-OHD3
  RBI (Relative Binding Index): 33

## C[C@]12CC[C@H]3[C@@H](CCC4=CC(=O)CC[C@@]43C)[C@@H]1CC[C@@H]2O [Testosterone]
  competition of non-vitamin D steroids and bioactive lipids with 25-OHD3 for binding: competitively displaces [^3 H]25-OHD3
  RBI (Relative Binding Index): 30

## C=C1CC[C@H](O)C/C1=C/C=C1\CCC[C@]2(C)[C@@H]([C@H](C)CCCC(C)C)CC[C@@H]12 [Vltamin D3, cholecalciferol]
  ability to competitively displace [3H]25-OHD3 binding (FIG. 1A): ineffective as a competitive ligand
  RBI (Relative Binding Index): 0

## Androstendiol
  RBI (Relative Binding Index): 0

## C[C@]12CCC(=O)C=C1CC[C@@H]1[C@@H]2[C@@H](O)C[C@@]2(C)[C@H]1CC[C@]2(O)C(=O)CO [Hydrocortisone]
  RBI (Relative Binding Index): 0

## CC#C[C@]1(O)CC[C@H]2[C@@H]3CCC4=CC(=O)CCC4=C3[C@@H](c3ccc(N(C)C)cc3)C[C@@]21C [RU486]
  RBI (Relative Binding Index): 0

## CC1=C(/C=C/C(C)=C\C=C\C(C)=C\C(=O)O)C(C)(C)CCC1 [9-cis Retinoic acid]
  RBI (Relative Binding Index): 0

## CCCCC/C=C\C/C=C\C/C=C\C/C=C\CCCC(=O)O [Arachidonic acid]
  RBI (Relative Binding Index): 0

## C=C1CC[C@H](O)C/C1=C/C=C1\CCC[C@]2(C)[C@@H]([C@H](C)CCCC(C)(O)CO)CC[C@@H]12 (stereo partly drawn) [25,26-(OH)2D3]
  ability to competitively displace [3H]25-OHD3 binding (FIG. 1A): roughly equivalent in their ability to competitively inhibit
  RBI (Relative Binding Index): 70

## CCCCC[C@H](O)/C=C/[C@@H]1[C@@H](C/C=C\CCCC(=O)O)[C@@H](O)C[C@H]1O [PGF2alpha]
  RBI (Relative Binding Index): 0

## C=C1CC[C@H](O)C/C1=C/C=C1\CCC[C@]2(C)[C@@H]([C@H](C)/C=C/[C@H](C)C(C)C)CC[C@@H]12 [Vitamin D2, ergocalciferol]
  RBI (Relative Binding Index): 0

## C[C@]12CCC(=O)C=C1CC[C@@H]1[C@@H]2[C@@H](O)C[C@]2(C=O)[C@@H](C(=O)CO)CC[C@@H]12 [Aldosterone]
  RBI (Relative Binding Index): 0

## CCCCC[C@H](O)/C=C/[C@H]1[C@H](O)CC(=O)[C@@H]1C/C=C\CCCC(=O)O [PGE2]
  RBI (Relative Binding Index): 0

## C[C@]12C[C@H](O)[C@H]3[C@@H](CCC4=CC(=O)CC[C@@]43C)[C@@H]1CC[C@@H]2C(=O)CO [Corticosterone (B), Corticosterone]
  RBI (Relative Binding Index): 0

## C[C@]12CCC(=O)C=C1CC[C@@H]1[C@@H]2C(=O)C[C@@]2(C)[C@H]1CC[C@]2(O)C(=O)CO [Cortisone]
  RBI (Relative Binding Index): 0

## CC(C)CCC[C@@H](C)[C@H]1CC[C@H]2[C@@H]3CC=C4C[C@@H](O)CC[C@]4(C)[C@H]3CC[C@]12C [Cholesterol]
  RBI (Relative Binding Index): 0

## C[C@]12CC[C@H](OS(=O)(=O)O)CC1=CC[C@@H]1[C@@H]2CC[C@]2(C)C(=O)CC[C@@H]12 [DHEAS]
  RBI (Relative Binding Index): 0

## CC/C(=C(\c1ccccc1)c1ccc(OCCN(C)C)cc1)c1ccccc1 [Tamoxifen]
  RBI (Relative Binding Index): 0

## CC(=O)[C@H]1CC[C@H]2[C@@H]3CC=C4C[C@@H](O)CC[C@]4(C)[C@H]3CC[C@]12C [Pregnenolone]
  RBI (Relative Binding Index): 0

## C=C1CC[C@H](O)C/C1=C/C=C1\CCC[C@]2(C)[C@@H]([C@H](C)/C=C/[C@H](C)C(C)(C)O)CC[C@@H]12 [25-OHD2, 25-hydroxy vitamin D2]
  RBI (Relative Binding Index): 100
  binding / displacement of [3H]25-OHD3 by vitamin D2 metabolites and synthetic analogues (FIG. 2B): bound in unfractionated extracts equivalently to 25-OHD3 and 1,25-(OH)^2 D3

## CC(C)[C@@H](C)/C=C/[C@@H](C)[C@H]1CC[C@H]2/C(=C/C=C3\C[C@@H](O)CC[C@@H]3C)CCC[C@]12C [Dihydrotachysterol]
  ability to competitively displace [3H]25-OHD3 binding (FIG. 1A): incapable of displacing [^3 H]25-OHD3
  RBI (Relative Binding Index): 0
